Earlier results, collected in patent US20240350480A1, “STABLE PHARMACEUTICAL COMPOSITION OF METHYLNALTREXONE FOR AN ORAL ADMINISTRATION” (Lupin Limited, priority 2023, published 2024).

Details: oral administration

C[N+]1(CC2CC2)CC[C@]23c4c5ccc(O)c4O[C@H]2C(=O)CC[C@@]3(O)[C@H]1C5.[Br-] (stereo partly shown) [methylnaltrexone]
Methylnaltrexone absorbed into the bloodstream: less than 5%
